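1) Cells in 96-well plates. 2) Compound, 48 h, 5 concentrations. 3) Linear interpolation between surrounding doses. 4) Unreached endpoint = highest concentration. TGI: concentration producing complete growth inhibition.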
Key:
Test in all cases: NCI tumour cell line growth inhibition, 48 h
[1] = tested on: DU-145 prostate
[2] = tested on: COLO 205 colon
[3] = tested on: EKVX NSCLC
[4] = tested on: MOLT-4 leukemia
[5] = tested on: SNB-75 CNS
[6] = tested on: MDA-N
[7] = tested on: A498 renal
[8] = tested on: SW-620 colon
[9] = tested on: OVCAR-5 ovarian
[10] = tested on: SN12C renal
[11] = tested on: MALME-3M melanoma
[12] = tested on: NCI-H522 lung
[13] = tested on: UACC-257 melanoma
[14] = tested on: UACC-62 melanoma
[15] = tested on: HOP-92 NSCLC
[16] = tested on: HCC-2998 colon
[17] = tested on: IGROV1 ovarian
[18] = tested on: SR leukemia

O=S(=O)(SC1=NCCN1)c1ccc2ccccc2c1
TGI [1]: > 100 µM | TGI [2]: 37.7 µM | TGI [3]: > 100 µM | TGI [4]: 56.8 µM | TGI [5]: 68 µM | TGI [6]: 43.9 µM | TGI [7]: > 100 µM | TGI [8]: 43.6 µM | TGI [9]: 49.6 µM | TGI [10]: 68.9 µM | TGI [11]: > 100 µM | TGI [12]: 46.3 µM | TGI [13]: > 100 µM | TGI [14]: > 100 µM | TGI [15]: > 100 µM | TGI [16]: 38.7 µM | TGI [17]: > 100 µM

COc1ccc(C[C@@H](CO)NC2=C(C#N)CCC2)cc1
TGI [1]: > 100 µM | TGI [2]: > 100 µM | TGI [3]: > 100 µM | TGI [4]: > 100 µM | TGI [5]: 95.1 µM | TGI [6]: > 100 µM | TGI [7]: 97.9 µM | TGI [8]: > 100 µM | TGI [9]: > 100 µM | TGI [10]: > 100 µM | TGI [11]: > 100 µM | TGI [13]: > 100 µM | TGI [14]: > 100 µM | TGI [15]: > 100 µM | TGI [16]: > 100 µM

O=C(O)c1ccccc1/C=N/NC1=NCCN1
TGI [2]: > 100 µM | TGI [3]: > 100 µM | TGI [4]: > 100 µM | TGI [18]: > 100 µM | TGI [5]: > 100 µM | TGI [6]: > 100 µM | TGI [7]: > 100 µM | TGI [8]: > 100 µM | TGI [9]: > 100 µM | TGI [11]: > 100 µM | TGI [12]: > 100 µM | TGI [13]: > 100 µM | TGI [14]: > 100 µM | TGI [15]: 91.9 µM | TGI [16]: > 100 µM | TGI [17]: > 100 µM

O=C1NC(=O)C(CCC(=O)c2ccc3ccccc3c2)C(=O)N1
TGI [2]: > 100 µM | TGI [3]: > 100 µM | TGI [4]: > 100 µM | TGI [18]: > 100 µM | TGI [5]: > 100 µM | TGI [7]: > 100 µM | TGI [8]: > 100 µM | TGI [9]: > 100 µM | TGI [10]: > 100 µM | TGI [11]: > 100 µM | TGI [12]: 38.5 µM | TGI [13]: > 100 µM | TGI [14]: > 100 µM | TGI [15]: > 100 µM | TGI [16]: > 100 µM | TGI [17]: > 100 µM

Cc1cccc(C(C)C)c1NC(=O)/C(Cc1c([N+](=O)[O-])cccc1[N+](=O)[O-])=N/NC(=O)CC#N
TGI [2]: > 100 µM | TGI [3]: > 100 µM | TGI [4]: > 100 µM | TGI [5]: > 100 µM | TGI [7]: > 100 µM | TGI [8]: > 100 µM | TGI [9]: > 100 µM | TGI [11]: > 100 µM | TGI [12]: > 100 µM | TGI [14]: > 100 µM | TGI [15]: > 100 µM | TGI [16]: > 100 µM | TGI [17]: > 100 µM

COc1ccc(/C=C2\CCC(C)C3C2=NN(c2ccccc2)C3c2ccc(OC)c(OC)c2)cc1OC (configuration not stated)
TGI [1]: 12.7 µM | TGI [2]: 17.2 µM | TGI [3]: 6.9 µM | TGI [4]: 11 µM | TGI [5]: 6.37 µM | TGI [6]: 29.2 µM | TGI [7]: 12.3 µM | TGI [8]: > 100 µM | TGI [9]: 24 µM | TGI [10]: 17.6 µM | TGI [11]: 16.7 µM | TGI [13]: 9.74 µM | TGI [14]: 12.2 µM | TGI [17]: 8.23 µM

O=C1c2ccccc2C(=O)c2c1cc(S(=O)(=O)O)c(O)c2O
TGI [2]: > 100 µM | TGI [3]: > 100 µM | TGI [4]: > 100 µM | TGI [18]: > 100 µM | TGI [5]: > 100 µM | TGI [7]: > 100 µM | TGI [8]: > 100 µM | TGI [9]: > 100 µM | TGI [10]: > 100 µM | TGI [12]: > 100 µM | TGI [13]: > 100 µM | TGI [14]: > 100 µM | TGI [15]: > 100 µM | TGI [16]: > 100 µM | TGI [17]: > 100 µM

COc1ccc2c(c1)C(=O)Cc1ccccc1CC2
TGI [2]: > 100 µM | TGI [3]: > 100 µM | TGI [4]: > 100 µM | TGI [18]: > 100 µM | TGI [5]: > 100 µM | TGI [7]: > 100 µM | TGI [8]: > 100 µM | TGI [9]: > 100 µM | TGI [10]: > 100 µM | TGI [11]: > 100 µM | TGI [12]: > 100 µM | TGI [13]: > 100 µM | TGI [14]: > 100 µM | TGI [15]: > 100 µM | TGI [16]: > 100 µM | TGI [17]: > 100 µM

From PubChem BioAssay (NCI)
